From patent publication US20060004086A1, “Method of reducing Abeta42 and treating diseases” (Mayo Foundation for Medical Education and Research, priority 2000, published 2006)
“Also recorded” adds a separate entry of the source. Where two headings read alike, the source gives them in different places.

Key:
[1] = tested on: Aβ42 secretion; assay: Primary in vitro screen, CHO-APP695NL,I,his cells, end-specific Aβ40 and Aβ42 ELISAs; format: cell-based, Chinese hamster; settings: for activity at 10 µM / activity at 100 µM: Cricetulus griseus, 6 h; for selective reduction of Aβ42 levels in the primary screen: 10 μM or 100 μM, classification on a 20% change
Experimental: Aβ40 and Aβ42 levels in culture supernatants were determined for each time points using ELISA.
In a primary screen, the effects of NSAIDs on Aβ42 secretion by a CHO cell line that expressed APP(CHO-APP695NL,I,his) were examined. Duplicate cell cultures were treated with (a) a vehicle, (b) 10 μM of NSAID, or (c) 100 μM of NSAID.
To determine Aβ40 and Aβ42 levels, six-hour culture supernatants taken from cells grown in a single well of a twenty-four-well plate were used in end-specific Aβ40 and Aβ42 ELISAs (Suzuki, et al. (1994) Sci 264:[…]). Aβ40 and Aβ42 levels of cultures treated with NSAID were compared with those of cultures treated with the vehicle alone. […] NSAIDs that caused either selective reduction of Aβ42 levels or reduction in both Aβ40 and Aβ42 levels are subjected to a secondary screen.

[2] = tested on: brain Aβ42 levels in Tg2576 mice; assay: Acute oral dosing of three-month-old Tg2576 mice, brain Aβ ELISA; format: in vivo, mouse
Experimental: NSAIDs were dissolved in an appropriate vehicle. Dimethyl sulfoxide (DMSO), ethanol, and ethyl acetate are some examples. The NSAID solution was mixed with Kool-Aid and administered orally using a medicine dropper. […] At two hours after the final doses were administered, animals were sacrificed, and SDS soluble Aβ40 and Aβ42 were analyzed using ELISA.
Three month old mice have high levels of soluble Aβ in the brain but no Aβ deposition (see Hsiao et al. (1996) Science 274:99-102). […] Brain levels of SDS-soluble Aβ40 and Aβ42 were measured using ELISA.
Compounds were administered orally.

[3] = plasma concentration of the drug; cited from earlier work
[4] = tested on: Aβ42 secretion; assay: Aβ40/Aβ42 ELISA of culture supernatants, CHO cells expressing APP751; format: cell-based, Chinese hamster; settings: CHO cells expressing APP751; concentrations up to 400 μM
Experimental: Cell cultures were maintained in standard cell culture media supplemented with 10% fetal bovine serum and 100 U/mL penicillin/streptomycin (Life Technologies Inc., Germany).
For analyses of Aβ secretion, APP processing, and notch cleavage, cells were cultured in serum-containing media and pretreated overnight with a specific NSAID. The next day, media were changed and cultures were treated with the same NSAID for another 24 hours.
Aβ was detected by sandwich enzyme-linked immunosorbent assay (ELISA) as described by Murphy et al. (2000) J Biol Chem 275:26277-84. Following NSAID treatment, culture supernatants were collected, and cell debris was removed by centrifugation. Complete protease inhibitor cocktail (Roche Molecular Biochemicals, IN, USA) was added to the media and Aβ40 and Aβ42 levels were quantified using end-specific Aβ ELISAs. All measurements were performed in duplicate.
The effect of sulindac sulfone on Aβ42 secretion was examined. Sulindac sulfone is an oxidation product of the pro-drug sulindac. […] Cell cultures were treated with increasing concentrations of sulindac sulfone. Aβ40 and Aβ42 levels in culture supernatants were analyzed using ELISA.
Aβ40 and Aβ42 levels in cell culture supernatants were analyzed using ELISA. Aβ42/Aβ40 ratios and total Aβ levels were normalized to values obtained from DMSO-treated cultures. […] NSAIDs were verified using NMR and mass spectrometry.

[5] = tested on: Aβ42 production; assay: Aβ42 production in APP695-transfected H4 cells; format: cell-based, human
Experimental: In a tertiary screen, Aβ production, sAPP production, and toxicity in a human H4 neuroglioma cell line that expressed APP are examined for all FDA-approved NSAIDs and novel NSAIDs that selectively reduce Aβ42 levels. Three doses of each NSAID are tested. The first is a dose that is expected to cause maximum reduction of Aβ42 levels. The second dose is one that reduces Aβ42 levels by 50% of the maximum value, while the third dose is one that reduces Aβ42 levels by 10-20% of the maximum value.

[6] = 10 μM, six-hour culture supernatants, read-out: % Control % Aβ42
[7] = 10 μM, six-hour culture supernatants, read-out: % Control Aβ40
[8] = 10 μM, six-hour culture supernatants, read-out: % Control Aβ42
[9] = Tg2576 mice, three month-old, 50 mg/kg/day orally for three days, SDS-soluble, mean ± SD
[10] = Tg2576 mice, treatment for three days, 50 mg/kg/day
[11] = six-hour culture supernatants, read-out: % Control % Aβ42
[12] = six-hour culture supernatants, read-out: % Control Aβ40
[13] = six-hour culture supernatants, read-out: % Control Aβ42
[14] = concentration not given, six-hour culture supernatants

SMILES	activity at 10 µM [1, 6]	activity at 10 µM [1, 7]	activity at 10 µM [1, 8]	activity at 100 µM [1, 11]	activity at 100 µM [1, 12]	activity at 100 µM [1, 13]	other results
O=C(c1ccccc1)c1ccc2n1CCC2C(=O)O (stereo not drawn) [Ketorlolac]	142%	84%	131%				
Cc1ccc(Cl)c(Nc2ccccc2C(=O)O)c1Cl [Meclofenamic acid, meclofenamic acid]	37%	39%	13%				Brain levels of Aβ40 [2, 9]: 2932 ± 289 fmol/gm; Brain levels of Aβ42 [2, 9]: 679 ± 343 fmol/gm; % Aβ42 in brain ([2]; Tg2576 mice, three month-old, 50 mg/kg/day orally for three days, mean ± SD): 18.6 ± 8.7 %; Aβ40 levels in the brain [2, 10]: no change; reduction in Aβ42 levels in the brain [2, 10]: approximately 30%; selective reduction of Aβ42 levels in the primary screen [1]: selectively reduced Aβ42 levels; selective reduction of Aβ42, time course ([1]; CHO-APP695NL,I,his cells treated for six, twelve, or twenty-four hours): detectable at six hours
Cc1cccc(Nc2ccccc2C(=O)O)c1C [Mefenamic Acid, mefenamic acid]				72%	116%	78%	selective reduction of Aβ42 levels in the primary screen [1]: selectively reduced Aβ42 levels
Cc1cnc(NC(=O)C2=C(O)c3ccccc3S(=O)(=O)N2C)s1 [Meloxicam]	158%	64%	122%				Plasma [3]: 15 µM
O=C(O)c1cc([N+](=O)[O-])ccc1NCCCc1ccccc1 [NPPB, 5-nitro-2-(3-phenylpropylamino)benzoic acid]	66%	81%	48%				
COc1ccc2cc(CCC(C)=O)ccc2c1 [Nabumetone]				70%	157%	103%	
COc1ccc2cc([C@H](C)C(=O)O)ccc2c1 [Naproxen, naproxen]				104%	107%	112%	total Aβ levels [4]: did not affect total Aβ levels
CN1C(C(=O)Nc2ccccn2)=C(O)c2ccccc2S1(=O)=O [Piroxicam]				75%	142%	101%	
C[C@@H](C(=O)O)c1ccc(-c2ccccc2)c(F)c1 [R-flurbiprofen, (2R)-2-(2-Fluoro-1,1′-biphenyl-4-yl)propanoic acid]							brain Aβ42 levels ([2]; three-month old Tg2576 mice, 100 mg/kg/day orally for three days, compared with vehicle, 100 mg/kg/day): more effective at lowering brain Aβ42 in this acute dosing paradigm than S-flurbiprofen; also recorded: lower Aβ42 levels; levels of Aβ40 production [5]: not altered; Aβ42 levels lowered by ([5]; 10 μM): 20%; Aβ42 levels lowered by ([5]; 100 μM): 49%
Oc1ccc(C=Cc2cc(O)cc(O)c2)cc1 [Resveratrol]	130%	75%	107%				
C[C@H](C(=O)O)c1ccc(-c2ccccc2)c(F)c1 [S-flurbiprofen]							levels of Aβ40 production [5]: not altered; Aβ42 levels lowered by ([5]; 100 μM): 58%
COc1ccc(-n2nc(C(F)(F)F)cc2-c2ccc(Cl)cc2)cc1 [SC560]							activity at 10 µM ([1]; read-out: % Control % Aβ42): 227%; activity at 10 µM ([1]; read-out: % Control Aβ40): 47%; activity at 10 µM ([1]; read-out: % Control Aβ42): 166%
CC1=C(CC(=O)O)c2cc(F)ccc2/C1=C\c1ccc(S(C)(=O)=O)cc1 [Sulindac Sulfone, sulindac sulfone]							Aβ42/Aβ40 ratios [4]: no changes in Aβ42/Aβ40 ratios were observed; % Control % Aβ42 [1, 14]: 92%; % Control Aβ40 [1, 14]: 109%; % Control Aβ42 [1, 14]: 97%
CC(C(=O)O)c1ccc(C(=O)c2cccs2)cc1 (stereo not drawn) [Suprofen]				102%	126%	129%	
CN1C(C(=O)Nc2ccccn2)=C(O)c2sccc2S1(=O)=O [Tenoxicam]				112%	80%	92%	
Cc1c(Cl)cccc1Nc1ccccc1C(=O)O [Tolfenamic Acid, tolfenamic acid]				110%	84%	95%	selective reduction of Aβ42 levels in the primary screen [1]: did not
